The target of experiment [1] is T1, HCV NS3/4A protease complex (BMS strain) (UniProt P27958).
T1 construct: other: HCV NS3/4A enzyme assay; said of H77 and J4L6S; fused on or other part: Three-lysine solubilising tail at the NS4A C-terminus and a His tag from pET21b (Ni-NTA purification), for the H77 and J4L6S constructs
The experiment is described as follows: FRET peptide assay to monitor HCV NS3/4A proteolytic activity, BMS strain. Format: biochemical, Hepatitis C virus (genotype 1a). The conditions noted are these: read-out: IC50 Range; HCV NS3/4A enzyme assay; Table 1. The gist of the method:
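Recombinant NS3/4A (BMS strain, genotype 1a, >90% pure) cleaving FRET depsipeptide RET S1 (EDANS/DABCYL) at 2 μM; enzyme 2-3 nM (300 pM with 50 μg/ml BSA for sensitive runs). Buffer 50 mM HEPES pH 7.5, 0.15 M NaCl, 0.1% Triton, 15% glycerol, 10 mM βME; fluorescence followed in real time.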

The test system of experiment [2] is HCV replicon in HUH-7 cells. The experiment is described as follows: HCV replicon FRET assay. Type of experiment: cell-based, Hepatitis C virus (strain 1b). The conditions noted are these: Hepatitis C virus, Huh-7, read-out: EC50 Range, HCV replicon cell assay; Table 1. The gist of the method:
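HUH-7 cells carrying a genotype 1b subgenomic neo replicon (NS3–NS5B) treated 4 days at 37 °C with compound in 0.5% DMSO final. CC50 from alamarBlue fluorescence after 4 h; cells then lysed with FRET protease substrate at 10 μM final and read kinetically at 340/490 nm to give EC50.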

T1 sequence (P27958 1027-1657, one chain of several): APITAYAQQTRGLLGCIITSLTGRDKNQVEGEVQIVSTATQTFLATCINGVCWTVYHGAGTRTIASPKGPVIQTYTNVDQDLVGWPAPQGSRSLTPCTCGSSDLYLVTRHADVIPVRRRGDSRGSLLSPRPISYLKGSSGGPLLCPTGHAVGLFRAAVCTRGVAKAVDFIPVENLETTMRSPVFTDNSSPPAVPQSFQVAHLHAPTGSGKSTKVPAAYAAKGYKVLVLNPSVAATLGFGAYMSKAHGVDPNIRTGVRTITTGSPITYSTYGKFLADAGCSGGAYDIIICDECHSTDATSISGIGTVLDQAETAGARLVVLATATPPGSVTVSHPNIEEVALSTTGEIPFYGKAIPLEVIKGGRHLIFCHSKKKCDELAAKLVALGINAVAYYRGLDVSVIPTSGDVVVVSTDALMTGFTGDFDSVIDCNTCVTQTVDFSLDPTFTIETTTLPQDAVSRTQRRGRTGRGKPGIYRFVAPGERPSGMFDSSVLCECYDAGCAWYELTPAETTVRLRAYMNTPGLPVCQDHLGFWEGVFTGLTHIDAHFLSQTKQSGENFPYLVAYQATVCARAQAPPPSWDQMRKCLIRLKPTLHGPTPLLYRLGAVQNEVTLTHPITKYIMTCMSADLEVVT

Regarding `C=C[C@@H]1C[C@]1(NC(=O)[C@@H]1C[C@@H](Oc2nc(-c3ccc(OC(F)(F)F)cc3)cc3cc(OC)ccc23)CN1C(=O)[C@@H](O)C(C)(C)COC)C(=O)NS(=O)(=O)C1CC1` [Example 63Compound 63], in experiment [1], the IC50 (as a rule, the concentration that inhibits the measured activity by half) is below 100 nM. In addition, the EC50 (in general, the concentration giving half of the maximal effect) in experiment [2] fell in the range of 500 to 5000 nM.

On to `C=C[C@@H]1C[C@]1(NC(=O)[C@@H]1C[C@@H](Oc2nccc3ccccc23)CN1C(=O)[C@@H](O)C(C)(C)C)C(=O)NS(=O)(=O)C1CC1` [Example 8], for which the IC50 in experiment [1] fell in the range of 100 to 1000 nM. In addition, in experiment [2], the EC50 was in the range of 500 to 5000 nM.

Turning to `C=C[C@@H]1C[C@]1(NC(=O)[C@@H]1C[C@@H](Oc2ncnc3ccccc23)CN1C(=O)[C@@H](OC(=O)NC(C)(C)C)C(C)(C)C)C(=O)NS(=O)(=O)C1CC1` [Example 57Compound 57], the half-maximal inhibitory concentration (IC50) in experiment [1] lay in the range of 100 to 1000 nM. For the same compound, the EC50 in experiment [2] is 500 to 5000 nM.

Values taken from patent US7323447B2, “Hepatitis C virus inhibitors” (Bristol-Myers Squibb Company, priority 2005, dated 2008).
